Key:
[1] = target: BRD4(D1) (Homo sapiens (Human), UniProt O60885); assay: Inhibitory activity against BRD4(D1), HTRF assay; format: binding
Method: (§1) (+)-JQ1 was used as comparison compound, to evaluated the inhibitory activity of compounds of the invention against BRD4(D1) and BRD4(D2) in vitro.
(§2) The assays of BRD4 (D1) and BRD4 (D2) were conducted in a 384-well polystyrene plate. The test compounds were first serially diluted in DMSO and the test compound/DMSO were transferred to 384-well plates. The final concentration of DMSO in the assay was 0.1%. 2 volumes of protein/peptide mixture were added into 384-well plates, then 2 volumes of assay mixture were added, and shake for 30 s. The plate was incubated at room temperature for 2 h. Then the HTRF signal on EnVision was readed.
(§3) Use equation (1) to fit the date in Excel to obtain the value of the inhibition rate. Inhibition rate (%)=(maximum value−signal value)/(maximum value−minimum value)*100 Equation(1):
(§4) IC50 determination was performed by fitting the data using GraphPad Prism 5.0 software and equation (2). Y=bottom+(Top−bottom)/(1+10^((Log IC50−X)*HillSlope)); Equation(2): wherein, Y represents the percentage of inhibition (%); X represents the concentration of test compounds.
(§5) The IC50 data of the examples were provided in the following table, wherein, A stands for IC50<100 nM; B stands for IC50 is 100-300 nM; C stands for IC50>300 nM.

[2] = target: BRD4(D2) (Homo sapiens (Human), UniProt O60885); assay: Inhibitory activity against BRD4(D2), HTRF assay; format: binding
Method: as §1, §2, §3, §4, §5

Compound | IC50 ([1]; numeric values) [nM] | IC50 ([2]; numeric values) [nM] | IC50 ([1]; class symbols) [nM] | IC50 ([2]; class symbols) [nM]
Cc1[nH]c2ncc(-c3cn(C)c(=O)c4[nH]ccc34)cc2c1C(C)c1c(Cl)ccc(F)c1Cl (centres unmarked) [Example 35, 4-(3-(1-(2,6-dichloro-3-fluorophenyl)ethyl)-2-methyl-1H-pyrrolo[2,3-b]pyridin-5-yl)-6-methyl-1,6-dihydro-7H-pyrrolo[2,3-c]pyridin-7-one] | 45.1 | 5.3 |  | 
Cn1cc(-c2cnc3ccn(Cc4c(Cl)cccc4Cl)c3c2)c2cc[nH]c2c1=O [Example 36, 4-(1-(2,6-dichlorobenzyl)-1H-pyrrolo[3,2-b]pyridin-6-yl)-6-methyl-1,6-dihydro-7H-pyrrolo[2,3-c]pyridin-7-one] | 15 | 2.9 |  | 
Cn1cc(-c2cnc3ncnc(Nc4ccc(Cl)cc4)c3c2)c2cc[nH]c2c1=O [Example 37, 4-(4-((4-chlorophenyl)amino)pyrido[2,3-d]pyrimidin-6-yl)-6-methyl-1,6-dihydro-7H-pyrrolo[2,3-c]pyridin-7-one] |  |  | > 300 | > 300
Cc1cc2ncc(-c3cn(C)c(=O)c4[nH]ccc34)cc2n1Cc1c(Cl)cccc1Cl [Example 38, 4-(1-(2,6-dichlorobenzyl)-2-methyl-1H-pyrrolo[3,2-b]pyridin-6-yl)-6-methyl-1,6-dihydro-7H-pyrrolo[2,3-c]pyridin-7-one] | 7.3 | 2.2 |  | 
Cn1cc(-c2ccc3ccn(S(=O)(=O)c4ccc(Cl)cc4)c3n2)c2cc[nH]c2c1=O [Example 40, 4-(1-((4-chlorophenyl)sulfonyl)-1H-pyrrolo[2,3-b]pyridin-6-yl)-6-methyl-1,6-dihydro-7H-pyrrolo[2,3-c]pyridin-7-one] | 10.5 | 2.5 |  | 
CCS(=O)(=O)Nc1cc(-c2cn(C)c(=O)c3[nH]ccc23)cc2c1nc(C)n2Cc1ccc(C(F)(F)F)cc1 [Example 42, N-(2-methyl-6-(6-methyl-7-oxo-6,7-dihydro-1H-pyrrolo[2,3-c]pyridin-4-yl)-1-(4-(trifluoromethyl)benzyl)-1H-benzo[d]imidazol-4-yl)ethanesulfonamide] |  |  | < 100 | < 100
CCS(=O)(=O)Nc1cc(-c2cn(C)c(=O)c3[nH]ccc23)cc2c1nc(C)n2Cc1ccc(OC)cc1 [Example 43, N-(1-(4-methoxybenzyl)-2-methyl-6-(6-methyl-7-oxo-6,7-dihydro-H-pyrrolo[2,3-c]pyridin-4-yl)-1H-benzo[d]imidazol-4-yl)ethanesulfonamide] |  |  | < 100 | < 100
CCS(=O)(=O)Nc1cc(-c2cn(C)c(=O)c3[nH]ccc23)cc2c1nc(C)n2C(C)c1ccc(Cl)cc1 (centres unmarked) [Example 44, N-(1-(1-(4-chlorophenyl)ethyl)-2-methyl-6-(6-methyl-7-oxo-6,7-dihydro-H-pyrrolo[2,3-c]pyridin-4-yl)-1H-benzo[d]imidazol-4-yl)ethanesulfonamide] |  |  | < 100 | < 100
CCS(=O)(=O)Nc1cc(-c2cn(C)c(=O)c3[nH]ccc23)cc2c1nc(C)n2Cc1ccccc1 [Example 45, N-(1-benzyl-2-methyl-6-(6-methyl-7-oxo-6,7-dihydro-1H-pyrrolo[2,3-c]pyridin-4-yl)-1H-benzo[d]imidazol-4-yl)ethanesulfonamide] |  |  | < 100 | < 100
CCS(=O)(=O)Nc1cc(-c2cn(C)c(=O)c3[nH]ccc23)cc2c1nc(C)n2Cc1cccc(C(F)(F)F)c1 [Example 46, N-(2-methyl-6-(6-methyl-7-oxo-6,7-dihydro-1H-pyrrolo[2,3-c]pyridin-4-yl)-1-(3-(trifluoromethyl)benzyl)-1H-benzo[d]imidazol-4-yl)ethanesulfonamide] |  |  | < 100 | < 100
CCS(=O)(=O)Nc1cc(-c2cn(C)c(=O)c3[nH]ccc23)cc2c1nc(C)n2Cc1cc(C(F)(F)F)ccc1F [Example 47, N-(2-methyl-6-(6-methyl-7-oxo-6,7-dihydro-1H-pyrrolo[2,3-c]pyridin-4-yl)-1-(2-fluoro-5-(trifluoromethyl)benzyl)-1H-benzo[d]imidazol-4-yl)ethanesulfonamide] |  |  | < 100 | < 100
CCS(=O)(=O)Nc1cc(-c2cn(C)c(=O)c3[nH]ccc23)cc2c1nc(C)n2Cc1cc(F)cc(C(F)(F)F)c1 [Example 48, N-(2-methyl-6-(6-methyl-7-oxo-6,7-dihydro-1H-pyrrolo[2,3-c]pyridin-4-yl)-1-(3-fluoro-5-(trifluoromethyl)benzyl)-1H-benzo[d]imidazol-4-yl)ethanesulfonamide] |  |  | < 100 | < 100
CCS(=O)(=O)Nc1cc(-c2cn(C)c(=O)c3[nH]ccc23)cc2c1nc(C)n2Cc1ccc(Cl)cc1F [Example 49, N-(2-methyl-6-(6-methyl-7-oxo-6,7-dihydro-1H-pyrrolo[2,3-c]pyridin-4-yl)-1-(2-fluoro-4-chlorobenzyl)-1H-benzo[d]imidazol-4-yl)ethanesulfonamide] |  |  | < 100 | < 100
CCS(=O)(=O)Nc1cc(-c2cn(C)c(=O)c3[nH]ccc23)cc2c1nc(C)n2Cc1ccc(Cl)c(C(F)(F)F)c1 [Example 50, N-(2-methyl-6-(6-methyl-7-oxo-6,7-dihydro-1H-pyrrolo[2,3-c]pyridin-4-yl)-1-(3-(trifluoromethyl)-4chlorobenzyl)-1H-benzo[d]imidazol-4-yl)ethanesulfonamide] |  |  | < 100 | < 100
CCS(=O)(=O)Nc1cc(-c2cn(C)c(=O)c3[nH]ccc23)cc2c1nc(C)n2Cc1ccc(C(F)(F)F)c(F)c1 [Example 51, N-(2-methyl-6-(6-methyl-7-oxo-6,7-dihydro-1H-pyrrolo[2,3-c]pyridin-4-yl)-1-(3-fluoro-4-(trifluoromethyl)benzyl)-1H-benzo[d]imidazol-4-yl)ethanesulfonamide] |  |  | < 100 | < 100
CCS(=O)(=O)Nc1cc(-c2cn(C)c(=O)c3[nH]ccc23)cc2c1nc(C)n2Cc1ccc(C(F)(F)F)c(Cl)c1 [Example 52, N-(2-methyl-6-(6-methyl-7-oxo-6,7-dihydro-1H-pyrrolo[2,3-c]pyridin-4-yl)-1-(3-chloro-4-(trifluoromethyl)benzyl)-1H-benzo[d]imidazol-4-yl)ethanesulfonamide] |  |  | < 100 | < 100
CCS(=O)(=O)Nc1cc(-c2cn(C)c(=O)c3[nH]ccc23)cc2c1nc(C)n2Cc1cccc(Cl)c1 [Example 53, N-(2-methyl-6-(6-methyl-7-oxo-6,7-dihydro-1H-pyrrolo[2,3-c]pyridin-4-yl)-1-(3-chlorobenzyl)-1H-benzo[d]imidazol-4-yl)ethanesulfonamide] |  |  | < 100 | < 100
CCS(=O)(=O)Nc1cc(-c2cn(C)c(=O)c3[nH]ccc23)cc2c1nc(C)n2Cc1ccc(Br)cc1 [Example 55, N-(2-methyl-6-(6-methyl-7-oxo-6,7-dihydro-1H-pyrrolo[2,3-c]pyridin-4-yl)-1-(4-bromobenzyl)-1H-benzo[d]imidazol-4-yl)ethanesulfonamide] |  |  | < 100 | < 100
CCS(=O)(=O)Nc1cc(-c2cn(C)c(=O)c3[nH]ccc23)cc2c1nc(C)n2Cc1ccc(S(C)(=O)=O)cc1 [Example 56, N-(2-methyl-6-(6-methyl-7-oxo-6,7-dihydro-1H-pyrrolo[2,3-c]pyridin-4-yl)-1-(4-(methylsulfonyl)benzyl)-1H-benzo[d]imidazol-4-yl)ethanesulfonamide] |  |  | < 100 | < 100

From US11466034B2, “Compound functioning as bromodomain protein inhibitor, and composition” (Betta Pharmaceuticals Co., Ltd., priority 2017, dated 2022)
